Laboratory results as given in EP0548790A1, “(1'S)-Hydroxyalkyloxapenem-3-carboxylic acids and their use as beta-lactamase inhibitors” (ELI LILLY AND COMPANY, priority 1991, dated 1993).

Legend:
[1] = system: E. coli TEM 1; assay: agar diffusion test, inhibition zone diameter (Hemmhof), inhibitor alone and combined with Cefaclor; assay type: cell-based, E. coli W 311O3 R6K (TEM 1); details: for zone of inhibition at 10 µg/disc: Escherichia coli, TEM1, read-out: Hemmhofdurchmesser mm (E. coli TEM 1) I (10 mcg); for Wirkung als Betalactamasehemmer gegen E. coli TEM 1: protection of Cefaclor against the bacterial enzyme; for Hemmhofzuwachs, d.h. die Schutzwirkung: increase of zone with Cefaclor versus alone; for Eigenwirkung als Antibiotika: inhibitor alone
Description: "like" bedeutet gleiche absolute Konfiguration zweier benachbarter Chiralitätszentren. Als Testkeim wurde ein besonders starker Betalactamase-Bildner verwendet. E. coli W 311O3 R6K (TEM 1) wurde deshalb mehrfach in einer Kulturlösung mit 2O mcg/ml Cefaclor bebrütet. Cefaclor allein (3O mcg) ergab einen Hemmhof von 16 mm, mit 1O mcg Clavulansäure kombiniert einen solchen von 22 mm Durchmesser.

[2] = target: T1, Cephalosporinasen aus Enterobacter cloacae (Enterobacter cloacae, UniProt P05364); details: reported in Amer. J. Med. 79 (suppl. 5B), 194 (1985); cited from earlier work
T1 construct: dagegen ist auch gegen diese Keime als Betalactamasehemmer wirksam; endogenous in cells
T1 sequence (P05364 21-381): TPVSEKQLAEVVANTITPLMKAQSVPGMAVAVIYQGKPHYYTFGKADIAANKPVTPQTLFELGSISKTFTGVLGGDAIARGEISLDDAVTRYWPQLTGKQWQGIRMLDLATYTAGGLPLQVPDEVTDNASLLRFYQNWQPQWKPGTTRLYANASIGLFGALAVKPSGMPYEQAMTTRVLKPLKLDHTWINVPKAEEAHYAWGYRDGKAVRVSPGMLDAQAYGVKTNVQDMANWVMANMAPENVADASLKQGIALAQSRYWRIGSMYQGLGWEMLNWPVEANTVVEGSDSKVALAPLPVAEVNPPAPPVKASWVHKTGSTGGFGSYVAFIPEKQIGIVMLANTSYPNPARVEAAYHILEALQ

[3] = target: T2, Cephalosporinasen aus Pseudomonas aeruginosa (Pseudomonas aeruginosa, UniProt P24735); details: reported in Amer. J. Med. 79 (suppl. 5B), 194 (1985); cited from earlier work
T2 construct: dagegen ist auch gegen diese Keime als Betalactamasehemmer wirksam; endogenous in cells
T2 sequence (P24735 27-397): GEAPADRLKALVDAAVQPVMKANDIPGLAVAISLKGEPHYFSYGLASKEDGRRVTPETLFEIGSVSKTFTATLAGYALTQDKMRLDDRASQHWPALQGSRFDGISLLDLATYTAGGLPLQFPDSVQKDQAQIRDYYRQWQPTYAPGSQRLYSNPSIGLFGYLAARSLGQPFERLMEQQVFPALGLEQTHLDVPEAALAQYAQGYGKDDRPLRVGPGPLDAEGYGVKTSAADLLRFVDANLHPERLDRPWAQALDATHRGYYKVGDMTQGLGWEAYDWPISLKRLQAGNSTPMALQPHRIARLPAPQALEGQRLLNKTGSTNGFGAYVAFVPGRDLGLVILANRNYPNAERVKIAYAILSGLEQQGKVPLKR

[4] = target: T2, Cephalosporinasen aus Pseudomonas aeruginosa; assay: beta-lactamase inhibitor activity against cephalosporinase producer; details: requires partner antibiotic able to enter the bacterium
[5] = system: E. cloacae; assay: inhibition zone diameter, third-generation cephalosporin combined with inhibitor; assay type: cell-based
Description: Die erfindungsgemässen Verbindungen sind in der Lage, schon in geringen Konzentrationen die Hemmwirkung aller untersuchter Penicilline wie z. B. Amoxycillin, Piperacillin, Mezlocillin oder Cephalosporine wie z. B. Cefaclor, Cefoperazon gegen Betalactamase-bildende Bakterien zu verstärken. Auch gemeinhin als Betalactamase-stabile geltende Cephalosporine der dritten Generation wie z. B. Cefotaxim oder Ceftriaxon (je 3O mcg) ergaben in der Kombination mit Ie (1O mcg) erstmals deutliche Hemmhöfe vom Durchmesser 27 bzw. 26 mm gegen E. cloacae. Die erfindungsgemässen Verbindungen sind stark wirksam gegen Penicillinasen und Cephalosporinasen.

[6] = target: T1, Cephalosporinasen aus Enterobacter cloacae; assay: beta-lactamase inhibitor activity against cephalosporinase producer; details: requires partner antibiotic able to enter the bacterium
[7] = system: Penicillin resistenten Staph. aureus; details: comparison with Clavulansäure; from earlier filing EP 89117433.6; cited from earlier work
[8] = system: Pseudomonas aeruginosa; details: comparison with Clavulansäure; from earlier filing EP 89117433.6; cited from earlier work

In the case of `O=C(O)[C@H]1/C(=C/CO)O[C@@H]2CC(=O)N21` [Clavulansäure], the “Hemmhof Durchmesser” value ([1]; Cefaclor 3O mcg combined with 1O mcg Clavulansäure) is given as 22 mm, the “Wirkung gegen Cephalosporinasen” value [2] is given as “nicht” and the “Wirkung gegen Cephalosporinasen” value [3] is given as “nicht”.
Compound `C[C@H](O)[C@H]1C(=O)N2C(C(=O)O)=C(C(C)(C)C)O[C@@H]12` (racemic) [Ic, racemischer cis-2-tert-Butyl-6-(unlike-hydroxyethyl)oxapenem-3-carbonsäure] has a zone of inhibition at 10 µg/disc [1] of 9 mm.
For `C[C@H](O)[C@H]1C(=O)N2C(C(=O)O)=C(C(C)(C)C)O[C@H]12` (racemic) [Ib, racemischer trans-2-tert-Butyl-6-(unlike-hydroxyethyl)oxapenem-3-carbonsäure], the zone of inhibition at 10 µg/disc [1] was 0 mm and the “Wirkung als Betalactamasehemmer gegen E. coli TEM 1” value [1] was “besonders gute Wirkung”.
With `N[C@@H](C(=O)N[C@@H]1C(=O)N2C(C(=O)O)=C(Cl)CS[C@H]12)c1ccccc1` [Cefaclor, reference compound] the Hemmhof ([1]; Cefaclor allein (3O mcg)) was 16 mm.
For `C[C@H](O)[C@H]1C(=O)N2C(C(=O)O)=C(C(C)(C)C)O[C@H]12` [Ie, (5R,6R)-2-tert-Butyl-((1S)-hydroxyethyl)oxapenem-3-carbonsäure (K-Salz)], the zone of inhibition at 10 µg/disc [1] was 0 mm, the “Wirkung als Betalactamasehemmer gegen E. coli TEM 1” value [1] was “besonders gute Wirkung” and the “Wirkung als Betalactamasehemmer” value [4] was “wirksam”. For the same compound, the “Hemmhöfe vom Durchmesser” value ([5]; Cefotaxim 3O mcg combined with Ie 1O mcg) was 27 mm, the “Hemmhöfe vom Durchmesser” value ([5]; Ceftriaxon 3O mcg combined with Ie 1O mcg) was 26 mm and the “Wirkung als Betalactamasehemmer” value [6] was “wirksam”.
In the case of `CC(C)(C)C1=C(C(=O)O)N2C(=O)[C@H](CO)[C@H]2O1` (racemic) [Ia, 2-tert-Butyl-6-hydroxymethyloxapenem-3-carbonsäure (K-Salz)], the “Wirksamkeit in der Kombination mit Mezlocillin” value [7] is given as “wirksamer als Clavulansäure”, the zone of inhibition at 10 µg/disc [1] is given as 17 mm and the “Hemmhofzuwachs, d.h. die Schutzwirkung” value [1] is given as “vergleichsweise gering”. The “Eigenwirkung als Antibiotika” value [1] was “gute Eigenwirkung” and the “Wirksamkeit in der Kombination mit Mezlocillin” value [8] was “wirksamer als Clavulansäure”.
In the case of `C[C@@H](O)[C@H]1C(=O)N2C(C(=O)O)=C(C(C)(C)C)O[C@H]12` [Id], the zone of inhibition at 10 µg/disc [1] is reported as 23 mm, the “Hemmhofzuwachs, d.h. die Schutzwirkung” value [1] is reported as “vergleichsweise gering” and the “Eigenwirkung als Antibiotika” value [1] is reported as “gute Eigenwirkung”.
